Test results: patent US11912719B2, “Substituted isoquinolines as rock kinase inhibitors” (Cervello Therapeutics LLC, priority 2018, dated 2024)

Key:
Assay type in all cases: biochemical
[1] = molecular target: T1, human ROCK2 enzyme kinase domain (Homo sapiens, UniProt O75116); test: fluorescence coupling (TR-FRET) enzymatic assay, ROCK2; conditions: 4 nM enzyme, 50 nM Ulight-CREBTide, one hour room temperature
T1 construct: GST; purchased Carna BioSciences 01-110
Method: (§1) Dose-response curves for compounds of the present invention were determined using a fluorescence coupling enzymatic assay using purified C-terminal truncated human ROCK1 catalytic domain (amino acids 1-477 of accession number NP_005397.1) fused to GST (Carna BioSciences, Catalog #01-109) and purified C-terminal truncated human ROCK2 enzyme kinase domain (amino acids 1-553 of accession number NP_004841.2) fused to GST BioSciences, Catalog #01-110). In addition, full length cGMP-dependent protein kinase 1 (PKG or PRKG1; amino acids 1-686 of accession number NP_006249.1) fused to GST (Carna BioSciences, Catalog #01-142), full length PKACα (PRKACA; amino acids 1-351 of accession number NP_002721.1) fused to GST (Carna BioSciences, Catalog #01-127), and C-terminal truncated human AKT1 catalytic domain (amino acids 104-480 of accession number NP_005154.1) fused to GST Biosciences, Catalog #01-101) were used as a control to measure any non-desired off-target kinase activity.
(§2) Briefly, compounds of the present invention were solubilized in DMSO and a series of 12, three-fold serial dilutions were made for each compound in 2.5% DMSO. The initial starting concentration for the serial dilutions of each compound was 10 μM or 100 μM. Control samples lacking compound, ROCK enzyme or ATP also were prepared and processed in parallel with compound test samples.
(§3) A 4 μL aliquot of each serial dilution of test compound diluted in H2O with 2.5% DMSO was added to a well containing 4 μL of 10 nM purified N-truncated ROCK1 (4 nM final concentration), 10 nM purified N-truncated ROCK2 enzyme (4 nM final concentration), 1.25 nM AKT1 (0.5 nM final concentration), 25 pM PKACA (10 pM final concentration) or 20 nM PKG (8 nM final concentration), in reaction buffer containing 50 mM Hepes, pH 7.5, 1 mM EGTA, 10 mM MgCl2, 2 mM DTT, and 0.01% Tween 20 (final concentration). To initiate the enzymatic reaction, 2 μL of a solution was added to each well to provide a final concentration of 50 nM Ulight-CREBTide peptide substrate (Perkin Elmer, Catalog #TRF0107) and 4 μM ATP for ROCK1 and AKT1 assays, […] for ROCK2 assays and 30 μM ATP for PKG assays, or 1 μM ATP for PKACA assays. The reaction mixtures were incubated at room temperature for one hour. After one hour, the reaction was stopped by the addition of a 10 solution of an Europium-labelled phospho-CREB (Ser133) antibody (Perkin Elmer, Catalog #TRF0200) in LANCE buffer supplemented with 20 mM EDTA. The stopped reaction mixtures were incubated at room temperature for 90 minutes. The TR-FRET 665/620 ratios were determined using a Clariostar monochromator plate reader instrument (BMG LabTech) in accordance with the manufacturer's instructions. The ICso value for each compound was determined from each dose-response curve using GraphPad Prism 7 software with a sigmodial dose response. Key: A is IC50≤100 nM; B is 100 nM<IC50<1000 nM; C is 1,000<IC50≤10,000 nM; D is IC50>10,000 nM

[2] = molecular target: T2, cGMP-dependent protein kinase 1 (PKG or PRKG1) (Homo sapiens, UniProt Q13976); test: fluorescence coupling (TR-FRET) enzymatic assay, PKG off-target control; conditions: 8 nM enzyme, 30 μM ATP, 50 nM Ulight-CREBTide, one hour room temperature
T2 construct: GST; purchased Carna BioSciences 01-142
T2 sequence (Q13976 1-686 isoform Q13976-2): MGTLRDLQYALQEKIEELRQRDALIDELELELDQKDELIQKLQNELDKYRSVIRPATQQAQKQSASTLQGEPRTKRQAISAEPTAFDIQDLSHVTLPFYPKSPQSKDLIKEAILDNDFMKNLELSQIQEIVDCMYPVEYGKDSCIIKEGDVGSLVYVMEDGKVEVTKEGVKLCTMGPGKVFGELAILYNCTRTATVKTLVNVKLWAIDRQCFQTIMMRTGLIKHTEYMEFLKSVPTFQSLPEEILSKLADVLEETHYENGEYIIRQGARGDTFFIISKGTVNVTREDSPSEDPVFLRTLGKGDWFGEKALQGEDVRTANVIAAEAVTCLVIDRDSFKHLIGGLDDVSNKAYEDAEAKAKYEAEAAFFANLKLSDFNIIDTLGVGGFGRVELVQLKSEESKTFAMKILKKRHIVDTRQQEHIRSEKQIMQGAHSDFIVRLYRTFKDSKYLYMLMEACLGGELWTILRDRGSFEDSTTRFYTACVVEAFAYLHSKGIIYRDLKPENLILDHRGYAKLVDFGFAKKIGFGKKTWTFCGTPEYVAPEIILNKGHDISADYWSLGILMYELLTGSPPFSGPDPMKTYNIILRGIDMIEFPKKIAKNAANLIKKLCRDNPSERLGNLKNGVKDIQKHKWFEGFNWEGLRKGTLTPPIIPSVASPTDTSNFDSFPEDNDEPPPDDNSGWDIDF
Method: as §1, §2, §3

[3] = molecular target: T3, human ROCK1 catalytic domain (Homo sapiens, UniProt Q13464); test: fluorescence coupling (TR-FRET) enzymatic assay, ROCK1; conditions: 4 nM enzyme, 4 μM ATP, 50 nM Ulight-CREBTide, one hour room temperature; read-out: ROCK1 IC50
T3 construct: GST; purchased Carna BioSciences 01-109
Method: as §2
The reaction mixtures were incubated at room temperature for one hour. After one hour, the reaction was stopped by the addition of a 10 solution of an Europium-labelled phospho-CREB (Ser133) antibody (Perkin Elmer, Catalog #TRF0200) in LANCE buffer supplemented with 20 mM EDTA. The stopped reaction mixtures were incubated at room temperature for 90 minutes. […] The ICso value for each compound was determined from each dose-response curve using GraphPad Prism 7 software with a sigmodial dose response.

[4] = molecular target: T4, human AKT1 catalytic domain (Homo sapiens, UniProt P31749); test: fluorescence coupling (TR-FRET) enzymatic assay, AKT1 off-target control; conditions: 0.5 nM enzyme, 4 μM ATP, 50 nM Ulight-CREBTide, one hour room temperature
T4 construct: GST; purchased Carna BioSciences 01-101
Method: as §1, §2, §3

PKACα (PRKACA) = molecular target: T5, PKACα (PRKACA) (Homo sapiens, UniProt P17612); test: fluorescence coupling (TR-FRET) enzymatic assay, PKACA off-target control; conditions: 10 pM enzyme, 1 μM ATP, 50 nM Ulight-CREBTide, one hour room temperature
T5 construct: GST; purchased Carna BioSciences 01-127
Method: as §1, §2, §3

T4 sequence (P31749 104-480): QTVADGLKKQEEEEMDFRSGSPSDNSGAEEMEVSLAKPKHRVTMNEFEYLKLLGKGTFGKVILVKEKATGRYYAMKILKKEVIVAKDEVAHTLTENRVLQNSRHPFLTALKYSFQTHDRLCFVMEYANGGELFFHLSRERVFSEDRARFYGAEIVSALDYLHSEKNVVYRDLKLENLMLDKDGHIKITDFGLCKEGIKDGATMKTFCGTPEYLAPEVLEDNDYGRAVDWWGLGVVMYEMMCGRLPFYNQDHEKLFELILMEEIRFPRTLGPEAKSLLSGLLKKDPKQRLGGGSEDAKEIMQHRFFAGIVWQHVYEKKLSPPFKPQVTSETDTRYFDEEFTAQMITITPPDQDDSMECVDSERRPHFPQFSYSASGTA
T1 sequence (O75116 1-553): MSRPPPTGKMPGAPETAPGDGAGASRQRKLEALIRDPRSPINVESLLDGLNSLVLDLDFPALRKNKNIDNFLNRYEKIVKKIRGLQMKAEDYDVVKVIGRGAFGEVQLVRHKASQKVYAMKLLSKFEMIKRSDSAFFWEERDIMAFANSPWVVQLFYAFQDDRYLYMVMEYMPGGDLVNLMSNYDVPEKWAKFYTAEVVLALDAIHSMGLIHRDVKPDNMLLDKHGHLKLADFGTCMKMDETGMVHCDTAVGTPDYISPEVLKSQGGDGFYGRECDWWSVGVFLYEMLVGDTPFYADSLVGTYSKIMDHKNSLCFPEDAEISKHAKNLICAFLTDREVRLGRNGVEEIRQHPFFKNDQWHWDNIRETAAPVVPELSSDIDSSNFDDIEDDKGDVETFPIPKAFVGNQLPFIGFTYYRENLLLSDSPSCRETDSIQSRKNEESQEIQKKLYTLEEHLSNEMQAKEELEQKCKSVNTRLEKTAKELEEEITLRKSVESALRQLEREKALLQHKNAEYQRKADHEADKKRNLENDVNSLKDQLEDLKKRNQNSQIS
T3 sequence (Q13464 1-477): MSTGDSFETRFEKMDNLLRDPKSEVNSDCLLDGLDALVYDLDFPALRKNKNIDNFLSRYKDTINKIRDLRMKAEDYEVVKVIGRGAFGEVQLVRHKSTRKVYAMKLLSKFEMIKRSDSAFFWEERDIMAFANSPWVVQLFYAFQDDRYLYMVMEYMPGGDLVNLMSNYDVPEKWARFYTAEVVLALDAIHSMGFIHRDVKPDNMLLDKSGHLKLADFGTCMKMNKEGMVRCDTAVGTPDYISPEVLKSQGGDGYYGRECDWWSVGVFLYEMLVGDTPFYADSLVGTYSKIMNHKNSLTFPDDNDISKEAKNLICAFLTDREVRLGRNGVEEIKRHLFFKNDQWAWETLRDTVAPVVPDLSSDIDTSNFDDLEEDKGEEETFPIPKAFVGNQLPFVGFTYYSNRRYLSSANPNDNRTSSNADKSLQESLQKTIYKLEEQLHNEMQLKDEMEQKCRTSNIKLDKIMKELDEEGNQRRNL

Row | Compound | IC50 [1] | IC50 [2] | IC50 [3] | IC50 [4] | IC50 (PKACα (PRKACA))
1 | Cc1c[nH]c(=O)c2cccc(S(=O)(=O)N3CCc4ncc(C#N)cc43)c12 [Example 39, 1-((4-methyl-1-oxo-1,2-dihydroisoquinolin-5-yl)sulfonyl)-2,3-dihydro-1H-pyrrolo[3,2-b]pyridine-6-carbonitrile] | 100 to 1000 nM | > 10000 nM | 100 to 1000 nM | > 10000 nM | > 10000 nM
2 | N#Cc1cnc2c(c1)N(S(=O)(=O)c1cccc3c(=O)[nH]cc(Cl)c13)CC2 [Example 40, 1-((4-chloro-1-oxo-1,2-dihydroisoquinolin-5-yl)sulfonyl)-2,3-dihydro-1H-pyrrolo[3,2-b]pyridine-6-carbonitrile] | < 100 nM | > 10000 nM | < 100 nM | > 10000 nM | > 10000 nM
3 | CCNc1cc(C#N)cc2c1CCN2S(=O)(=O)c1cccc2c(=O)[nH]cc(C)c12 [Example 43, 4-(ethylamino)-1-((4-methyl-1-oxo-1,2-dihydroisoquinolin-5-yl)sulfonyl)indoline-6-carbonitrile] | 100 to 1000 nM | > 10000 nM | 1000 to 10000 nM | > 10000 nM | > 10000 nM
4 | CCNc1cc(C#N)cc2c1CCN2S(=O)(=O)c1cccc2c(=O)[nH]cc(Cl)c12 [Example 44, 1-((4-chloro-1-oxo-1,2-dihydroisoquinolin-5-yl)sulfonyl)-4-(ethylamino)indoline-6-carbonitrile] | 1000 to 10000 nM | > 10000 nM | 1000 to 10000 nM | > 10000 nM | > 10000 nM

Results, then the compound that gave them:

Row | IC50 [1] | IC50 [2] | IC50 [3] | IC50 [4] | IC50 (PKACα (PRKACA)) | Compound
5 | 100 to 1000 nM | > 10000 nM | 100 to 1000 nM | > 10000 nM | > 10000 nM | CN(C)c1cc(C#N)cc2c1CCN2S(=O)(=O)c1cccc2c(=O)[nH]cc(Cl)c12 [Example 37, 1-((4-chloro-1-oxo-1,2-dihydroisoquinolin-5-yl)sulfonyl)-4-(dimethylamino)indoline-6-carbonitrile]
6 | 100 to 1000 nM | > 10000 nM | 100 to 1000 nM | > 10000 nM | > 10000 nM | N#Cc1cnc2c(c1)N(S(=O)(=O)c1cccc3c(=O)[nH]ccc13)CC2 [Example 38, 1-((1-oxo-1,2-dihydroisoquinolin-5-yl)sulfonyl)-2,3-dihydro-1H-pyrrolo[3,2-b]pyridine-6-carbonitrile]
7 | 100 to 1000 nM | > 10000 nM | 100 to 1000 nM | > 10000 nM | > 10000 nM | CNc1cc(C#N)cc2c1CCN2S(=O)(=O)c1cccc2c(=O)[nH]cc(C)c12 [Example 41, 1-((4-methyl-1-oxo-1,2-dihydroisoquinolin-5-yl)sulfonyl)-4-(methylamino)indoline-6-carbonitrile]
8 | < 100 nM | > 10000 nM | 100 to 1000 nM | > 10000 nM | > 10000 nM | CNc1cc(C#N)cc2c1CCN2S(=O)(=O)c1cccc2c(=O)[nH]cc(Cl)c12 [Example 42, 1-((4-chloro-1-oxo-1,2-dihydroisoquinolin-5-yl)sulfonyl)-4-(methylamino)indoline-6-carbonitrile]
9 | < 100 nM | 1000 to 10000 nM | < 100 nM | < 100 nM | 100 to 1000 nM | Cc1c[nH]c(=O)c2cccc(S(=O)(=O)N3CCc4c(NCCN5C[C@H]6C[C@@H]5CO6)cc(C#N)cc43)c12 [Example 45]
